16 compounds from patent US20240174690A1, “ANNULATED 2-AMINO-3-CYANO THIOPHENES AND DERIVATIVES FOR THE TREATMENT OF CANCER” (BOEHRINGER INGELHEIM INTERNATIONAL GMBH, priority 2021, published 2024) can be followed below.

Structures are written as SMILES.

The term IC50 denotes the concentration at which inhibition is half-maximal.

For one experiment, the system named is MKN1 cells. Kind of experiment: MKN1 CTG proliferation assay (120 h) (gastric cancer, wt amplified). To be noted: Homo sapiens, MKN-1, assay 3, CTG 120 h, read-out: MKN1 (assay 3) IC50. The class given is cell-based. The method, then: MKN1 CTG Proliferation Assay (120 h) (Gastric Cancer, Wt Amplified)
MKN1 cells (JCRB0252) are dispensed into white 384-well plates, flat and white bottom (Corning Costar, PNr.: 3570) at a density of 400 cells per well in 50 μL RPMI 1640 (PAN-Biotech, PNr.: P04-18047)+10% FCS (HyClone, PNr.: SH30084.03) (assay 1) or into white 384-well plates, flat and white bottom (Perkin Elmer, 6007680) at a density of 500 cells per well in 40 μl RPMI (Gibco, PNr.: 21875034)+10% FCS (HyClone, PNr.: SH30084.03) (assay 2) or into black 384-well plates, flat and clear bottom (Greiner, PNr. 781091) at a density of 200 cells per well in 60 μl RPMI-1640 (Gibco #A10491)+10% FCS (HyClone, PNr.: SH30084.03)+PenStrep (Gibco, PNr.15140-122) (assay 3). […] Compounds (10 mM stock in DMSO) are added at logarithmic dose series using the HP Digital Dispenser D300 (Tecan) (assay 1+2) or the ECHO acoustic liquid handler system (Beckman Coulter) (assay 3), including DMSO controls and normalizing for added DMSO. Plates are incubated for 120 h, and cell viability is measured using CellTiter-Glo luminescent cell viability reagent (Promega product code G7570). Viability (stated as percent of control) is defined as relative luminescence units RLU of each well divided by the RLU of cells in DMSO controls. IC50 values are determined from viability measurements by non-linear regression using a four-parameter model.

In another experiment the test system is GP2D cells. Put plainly: GP2D proliferation assay (120 h) (colorectal cancer, G12D). Type of experiment: cell-based. The method, then: GP2D Proliferation Assay (120 h) (Colorectal Cancer, G12D)
GP2D cells (ATCC No. CRL-5807) are dispensed into white 384-well plates, flat and white bottom (Perkin Elmer, 6007680) at a density of 500 cells per well in 40 μl DMEM (Sigma, D6429)+1×GlutaMAX (Gibco, 35050038)+10% FCS (fetal calf serum). […] Compounds (10 mM stock in DMSO) are added at logarithmic dose series using the HP Digital Dispenser D300 (Tecan), including DMSO controls and normalizing for added DMSO. For the TO time point measurement, untreated cells are analyzed at the time of compound addition. Plates are incubated for 120 h, and cell viability is measured using CellTiter-Glo luminescent cell viability reagent (Promega product code G7570). Viability (stated as percent of control) is defined as relative luminescence units RLU of each well divided by the RLU of cells in DMSO controls. IC50 values are determined from viability measurements by non-linear regression using a four parameter model.

Consider `COC(=O)c1ccc(-c2cc(O[C@@H](C)[C@@H]3CCCN3C)nc(-c3noc4c3CCC[C@@]43CCCc4sc(N)c(C#N)c43)n2)o1` [II-114], for which the IC50 in the experiment with MKN1 cells turned out to be 358 nM.
In the case of `C[C@H](Oc1cc(N2C[C@H](C)NC3(CC3)C2)nc(-c2onc3c2CCC[C@@]32CCCc3sc(N)c(C#N)c32)n1)[C@@H]1CCCN1C` [I-8], the half-maximal inhibitory concentration (IC50) in the experiment with GP2D cells is 6 nM; in the experiment with MKN1 cells, 395 nM.
In the case of `C[C@H](Oc1cc(-c2ccn(C[C@@H](C)O)n2)nc(-c2noc3c2CCC[C@@]32CCCc3sc(N)c(C#N)c32)n1)[C@@H]1CCCN1C` [II-117], the concentration for half-maximal inhibition (IC50) with GP2D cells is 276 nM.
Consider `C[C@H](Oc1cc(-c2cccc(CO)c2)nc(-c2noc3c2CCC[C@@]32CCCc3sc(N)c(C#N)c32)n1)[C@@H]1CCCN1C` [II-97], for which, in the experiment on MKN1 cells, the IC50 worked out at 598 nM.
As to `C[C@H](Oc1cc(-c2cn[nH]c2)nc(-c2noc3c2CCC[C@@]32CCCc3sc(N)c(C#N)c32)n1)[C@@H]1CCCN1C` [II-87], the IC50 with MKN1 cells is 302 nM.
Regarding `C[C@H](O)Cn1ccc(-c2cc(O[C@@H](C)[C@@H]3CCCN3C)nc(-c3noc4c3CCC[C@@]43CCCc4sc(N)c(C#N)c43)n2)n1` [II-112], in the experiment on GP2D cells, it took 248 nM to reach half-maximal inhibition (IC50).
With `C[C@H](Oc1cc(N2CCCC3(COC3)C2)nc(-c2noc3c2CCC[C@@]32CCCc3sc(N)c(C#N)c32)n1)[C@@H]1CCCN1C` [II-72], the half-maximal inhibitory concentration (IC50) with MKN1 cells worked out at 68 nM.
Turning to `C[C@H](Oc1cc(N2CCNC[C@]23CCOC3)nc(-c2noc3c2CCC[C@@]32CCCc3sc(N)c(C#N)c32)n1)[C@@H]1CCCN1C` [II-50], the concentration for half-maximal inhibition (IC50) with GP2D cells is 3 nM.
On to `C[C@H](Oc1cc(N2C[C@H](C)N[C@@H](C)C2)nc(-c2noc3c2CCC[C@@]32CCCc3sc(N)c(C#N)c32)n1)[C@@H]1CCCN1C` [II-56], for which the results for the IC50 with GP2D cells and with MKN1 cells were 13 nM and 660 nM, respectively.
As to `C[C@H](Oc1cc(N2Cc3cnn(C)c3C2)nc(-c2noc3c2CCC[C@@]32CCCc3sc(N)c(C#N)c32)n1)[C@@H]1CCCN1C` [II-63], in the experiment on MKN1 cells, the IC50 worked out at 578 nM.
As to `CO[C@@H]1C[C@@H]([C@H](C)Oc2cc(-c3ccn(C)n3)nc(-c3noc4c3CCC[C@@]43CCCc4sc(N)c(C#N)c43)n2)N(C)C1` [II-91], the half-maximal inhibitory concentration (IC50) in the experiment on GP2D cells was 394 nM; in the experiment with MKN1 cells it was 247 nM.
Consider `C[C@H](Oc1cc(-n2ccnc2)nc(-c2noc3c2CCC[C@@]32CCCc3sc(N)c(C#N)c32)n1)[C@@H]1C[C@@H](F)CN1C` [II-120], for which the half-inhibitory concentration (IC50) with MKN1 cells was found to be 234 nM.
`C[C@H](Oc1cc(N2CCC[C@H](O)C2)nc(-c2noc3c2CCC[C@@]32CCCc3sc(N)c(C#N)c32)n1)[C@@H]1CCCN1C` [II-57]: the IC50 in the experiment with GP2D cells amounted to 164 nM.
For `C[C@H](Oc1cc(-c2ccn(-c3ccccc3)n2)nc(-c2noc3c2CCC[C@@]32CCCc3sc(N)c(C#N)c32)n1)[C@@H]1CCCN1C` [II-89], the IC50 in the experiment with MKN1 cells was 625 nM.
Turning to `C[C@H](Oc1cc(N2CCN(C)C2=O)nc(-c2noc3c2CCC[C@@]32CCCc3sc(N)c(C#N)c32)n1)[C@@H]1CCCN1C` [II-75], the IC50 with GP2D cells came out at 111 nM; with MKN1 cells it was 108 nM.
`C[C@H](Oc1cc(-n2cncn2)nc(-c2noc3c2CCC[C@@]32CCCc3sc(N)c(C#N)c32)n1)[C@@H]1CCCN1C` [II-70]: the half-inhibitory concentration (IC50) with MKN1 cells turned out to be 387 nM.
